Laboratory results published in article PMC12116762, “Topobexin targets the Topoisomerase II ATPase domain for beta isoform-selective inhibition and anthracycline cardioprotection” (Nature Communications, 2025).

Columns and labels:
recombinant human TOP2B = target: T1, recombinant human TOP2B (Homo sapiens, UniProt Q02880); experiment: In vitro ATPase activity of TOP2B (coupled assay); type: biochemical; conditions: for SRbeta (SRTOP2B), TOP2 ATPase activity: TOP2A IC50 divided by TOP2B IC50; for IC50: n=3
T1 construct: Using recombinant full-length human TOP2A and TOP2B enzymes; YFP (N, cleaved yes); made in house; host or cells: HEK293F
T1 sequence (Q02880 1-1621 isoform Q02880-2): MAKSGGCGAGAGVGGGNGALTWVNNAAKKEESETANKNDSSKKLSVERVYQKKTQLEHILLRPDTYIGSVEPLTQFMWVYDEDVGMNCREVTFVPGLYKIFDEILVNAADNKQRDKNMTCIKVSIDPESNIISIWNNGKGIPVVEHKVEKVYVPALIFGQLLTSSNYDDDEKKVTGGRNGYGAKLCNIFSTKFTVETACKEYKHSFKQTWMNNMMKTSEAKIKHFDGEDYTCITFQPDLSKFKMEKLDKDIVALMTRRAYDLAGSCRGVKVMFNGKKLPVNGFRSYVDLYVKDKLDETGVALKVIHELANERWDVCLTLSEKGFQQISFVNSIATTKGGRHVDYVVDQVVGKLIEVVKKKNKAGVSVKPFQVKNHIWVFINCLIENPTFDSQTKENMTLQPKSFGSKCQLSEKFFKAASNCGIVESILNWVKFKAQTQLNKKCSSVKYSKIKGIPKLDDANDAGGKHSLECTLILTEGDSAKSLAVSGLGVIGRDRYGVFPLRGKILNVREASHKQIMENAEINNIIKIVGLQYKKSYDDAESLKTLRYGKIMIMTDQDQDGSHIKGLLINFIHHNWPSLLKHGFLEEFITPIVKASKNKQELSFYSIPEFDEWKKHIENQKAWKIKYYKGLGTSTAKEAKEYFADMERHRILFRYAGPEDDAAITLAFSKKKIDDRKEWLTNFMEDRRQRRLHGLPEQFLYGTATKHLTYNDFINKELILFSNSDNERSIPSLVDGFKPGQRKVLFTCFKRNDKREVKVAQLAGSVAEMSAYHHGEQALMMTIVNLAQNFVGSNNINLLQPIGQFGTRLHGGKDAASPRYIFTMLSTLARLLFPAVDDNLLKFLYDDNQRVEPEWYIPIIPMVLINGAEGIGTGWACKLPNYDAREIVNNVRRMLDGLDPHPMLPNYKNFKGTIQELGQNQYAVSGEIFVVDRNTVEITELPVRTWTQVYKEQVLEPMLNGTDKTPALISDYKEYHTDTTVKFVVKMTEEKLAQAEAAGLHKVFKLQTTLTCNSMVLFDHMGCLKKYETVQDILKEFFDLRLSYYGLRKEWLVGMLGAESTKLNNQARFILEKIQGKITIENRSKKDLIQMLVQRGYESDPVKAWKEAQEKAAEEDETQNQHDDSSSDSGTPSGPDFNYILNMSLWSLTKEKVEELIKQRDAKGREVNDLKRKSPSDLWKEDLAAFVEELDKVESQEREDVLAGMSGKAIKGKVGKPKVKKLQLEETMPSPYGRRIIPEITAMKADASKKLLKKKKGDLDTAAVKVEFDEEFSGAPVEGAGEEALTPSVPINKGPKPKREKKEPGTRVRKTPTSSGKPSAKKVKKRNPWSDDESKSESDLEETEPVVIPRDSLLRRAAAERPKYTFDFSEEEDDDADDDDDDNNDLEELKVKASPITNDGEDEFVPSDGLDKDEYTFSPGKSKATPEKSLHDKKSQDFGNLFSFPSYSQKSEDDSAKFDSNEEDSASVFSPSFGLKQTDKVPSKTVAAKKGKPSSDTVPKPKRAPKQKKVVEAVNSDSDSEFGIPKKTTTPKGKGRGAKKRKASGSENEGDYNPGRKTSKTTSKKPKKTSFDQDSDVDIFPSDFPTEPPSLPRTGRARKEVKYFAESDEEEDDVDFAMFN
Description: (§1) Topoisomerase proteins were diluted to 500 nM in storage buffer containing 20 mM HEPES pH 7.5, 500 mM NaCl, 0.5 mM TCEP, 25% glycerol, and 0.2 mg/mL BSA prior to use. A coupled assay was used to measure TOP2-catalyzed ATP hydrolysis in vitro[37] in Costar 96-well plates (Corning Incorporated). […] Reaction plates were pre-warmed to 30 °C for 5 min and ATP was added last to initiate the reaction. The reaction plate was placed in a CLARIOstarPlus plate reader (BMG Labtech) to measure NADH fluorescence at 30 °C every 30 s over 120 cycles using a 340-60 excitation filter and a 480-100 emission filter. Background fluorescence signals calculated from wells containing no ATP were subtracted from each measurement. The slope of NADH fluorescence decay in each well was calculated using the MARS software (BMG Labtech) and reaction wells that lacked topoisomerase inhibitor to account for photobleaching of NADH fluorescence served as background subtraction. Each presented data point was obtained from distinct sample. Values were normalized to untreated controls and plotted as a function of inhibitor concentration to determine IC50 values using Prism 9 (GraphPad).

recombinant human TOP2A = target: T2, recombinant human TOP2A (Homo sapiens, UniProt P11388); experiment: In vitro ATPase activity of TOP2A (coupled assay); type: biochemical; conditions: n=3
T2 construct: Using recombinant full-length human TOP2A and TOP2B enzymes; YFP (N, cleaved yes); made in house; host or cells: HEK293F
T2 sequence (P11388 whole entry): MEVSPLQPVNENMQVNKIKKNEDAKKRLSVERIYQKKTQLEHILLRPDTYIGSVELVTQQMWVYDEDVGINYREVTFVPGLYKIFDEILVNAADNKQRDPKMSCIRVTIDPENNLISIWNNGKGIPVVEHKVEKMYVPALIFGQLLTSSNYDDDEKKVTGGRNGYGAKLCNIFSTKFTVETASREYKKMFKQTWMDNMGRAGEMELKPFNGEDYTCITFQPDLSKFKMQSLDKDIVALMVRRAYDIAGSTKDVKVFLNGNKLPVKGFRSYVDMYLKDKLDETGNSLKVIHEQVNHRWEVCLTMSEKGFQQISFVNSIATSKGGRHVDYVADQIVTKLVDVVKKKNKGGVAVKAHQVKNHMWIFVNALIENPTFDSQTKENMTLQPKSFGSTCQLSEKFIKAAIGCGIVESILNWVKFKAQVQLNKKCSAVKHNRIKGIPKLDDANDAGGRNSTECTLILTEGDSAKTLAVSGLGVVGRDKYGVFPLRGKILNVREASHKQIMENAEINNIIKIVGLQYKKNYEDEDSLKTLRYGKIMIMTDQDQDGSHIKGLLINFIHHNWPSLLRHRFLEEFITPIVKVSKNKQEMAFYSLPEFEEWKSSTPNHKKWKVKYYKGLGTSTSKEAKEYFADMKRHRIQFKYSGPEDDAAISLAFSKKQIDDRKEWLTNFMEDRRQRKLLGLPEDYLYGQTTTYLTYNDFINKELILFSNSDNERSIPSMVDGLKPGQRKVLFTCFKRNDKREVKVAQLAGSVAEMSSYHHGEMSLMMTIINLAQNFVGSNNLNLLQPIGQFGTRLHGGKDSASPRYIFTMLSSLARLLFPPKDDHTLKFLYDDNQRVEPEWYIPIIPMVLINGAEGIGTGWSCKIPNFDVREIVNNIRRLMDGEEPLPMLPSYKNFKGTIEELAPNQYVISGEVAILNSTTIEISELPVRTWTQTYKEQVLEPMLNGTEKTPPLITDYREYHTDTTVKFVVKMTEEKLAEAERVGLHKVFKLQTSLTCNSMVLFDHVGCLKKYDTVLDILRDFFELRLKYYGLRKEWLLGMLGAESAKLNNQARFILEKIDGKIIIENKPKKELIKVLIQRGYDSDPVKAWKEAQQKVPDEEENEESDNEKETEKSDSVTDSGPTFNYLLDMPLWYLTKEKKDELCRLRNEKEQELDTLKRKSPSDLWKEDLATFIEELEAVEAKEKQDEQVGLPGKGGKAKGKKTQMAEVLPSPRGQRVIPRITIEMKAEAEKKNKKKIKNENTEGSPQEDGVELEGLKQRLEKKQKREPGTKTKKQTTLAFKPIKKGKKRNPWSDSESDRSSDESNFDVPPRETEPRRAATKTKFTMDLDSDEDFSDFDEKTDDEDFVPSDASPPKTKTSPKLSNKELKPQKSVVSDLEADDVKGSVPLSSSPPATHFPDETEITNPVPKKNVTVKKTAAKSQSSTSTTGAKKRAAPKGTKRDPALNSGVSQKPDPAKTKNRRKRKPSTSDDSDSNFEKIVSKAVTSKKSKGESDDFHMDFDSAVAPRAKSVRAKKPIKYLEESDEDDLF
Description: as §1

[1] = tested on: neonatal rat ventricular cardiomyocytes (NVCM); experiment: Inherent toxicity (LDH release) in NVCM; type: cell-based; set-up: key to LDH release (inherent toxicity), mean of independent replicates: % of total LDH activity; conditions: NVCM; for LTC = lowest toxic concentration: compound alone, n=4
Description: (§2) The protective effects of the BNS-22 and newly prepared compounds were evaluated using primary cultures of neonatal rat cardiomyocytes isolated in house as previously described. Hearts isolated from 1- to 3-day-old Wistar rats were minced in buffer (1.2 mM MgSO4 · 7H2O, 116 mM NaCl, 5.3 mM KCl, 1.13 mM NaH2PO4 · H2O, 20 mM 4-(2-hydroxyethyl)-1-piperazine ethanesulfonic acid (HEPES), glucose 1 mg/mL) on ice, then serially digested (20 min, six repetitions) at 37 °C with collagenase type II (60 U/mL, Gibco). After 2 h pre-plating in a 150 mm Petri dish per approximately 20 hearts to minimize non-myocyte contamination, cells were plated in 24-well gelatin-coated plates at a density of 400,000 cells per well. Cells were cultured at 37 °C and 5% CO2 in Dulbecco’s modified Eagle medium (DMEM)/ F12 culture medium supplemented with 10% horse serum, 5% fetal bovine serum (FBS), 20 mM sodium pyruvate, 50 U/mL penicillin, and 50 μg/mL streptomycin. Freshly isolated cells were left for 40 h to attach and form a culture of spontaneously beating cardiomyocytes, then the medium was changed to DMEM/F12 medium supplemented with 5% fetal bovine serum, 20 mM sodium pyruvate, 50 U/mL penicillin, and 50 μg/mL streptomycin. For the experiments, the medium was changed to serum- and pyruvate-free DMEM/F12 with 50 U/mL penicillin and 50 μg/mL streptomycin. Cardiomyocytes were pretreated with BNS-22 or new compounds for 3 h and then coincubated with DAU (1.2 µM) for another 3 h. After the DAU treatment period, the culture medium was exchanged for the drug-free DMEM/F12 with 50 U/mL penicillin and 50 μg/mL streptomycin for the 48 h follow-up. Experiments to determine the inherent toxicity of each compound studied follow the same schedule, only no DAU was added. Subsequently, the culture medium sample was taken from each well for evaluation of lactate dehydrogenase (LDH) activity. The total LDH activity of each sample for normalization was measured after 1 h of incubation at 37 °C in lysis buffer (0.1 M potassium phosphate, 1% Triton X-100, 1 mM dithiothreitol (DTT), 2 mM EDTA, pH 7.8, 15 min in RT). All samples were immediately analyzed in Tris HCl buffer (pH 8.9) containing 35 mM lactic acid and 5 mM NAD^+. The rate of NAD^+ reduction was monitored spectrophotometrically at 340 nm for 2 min. The slope of the linear region was calculated, and the results were expressed as a percentage of the total LDH. Each presented data point was obtained from distinct sample.

[2] = tested on: neonatal rat ventricular cardiomyocytes (NVCM); experiment: Protection against DAU-induced cytotoxicity (LDH release) in NVCM; type: cell-based; set-up: key to Suppl.Fig.3 DAU-induced cytotoxicity (LDH release) in NVCM, mean of independent replicates / LDH release (DAU-induced cytotoxicity), mean of independent replicates: % of total LDH activity; conditions: for minimal effective concentration: Rattus norvegicus, Cardiomyocyte, protection against DAU 1.2 µM, n=4, read-out: LEC = lowest effective concentration; for minimal effective concentration / LDH release (protection against DAU), mean of independent replicates: NVCM; for LDH release (protection against DAU), mean of independent replicates: Suppl.Fig.6b
Description: as §2

[3] = compound alone 0.1 µM, Suppl.Fig.4
[4] = compound alone 1 µM, Suppl.Fig.4
[5] = compound alone 10 µM, Suppl.Fig.4
[6] = compound alone 30 µM, Suppl.Fig.4
[7] = compound alone 100 µM, Suppl.Fig.4
[8] = compound alone 3 µM, Suppl.Fig.4
[9] = compound alone 0.01 µM, Suppl.Fig.6c
[10] = compound alone 0.1 µM, Suppl.Fig.6c
[11] = compound alone 1 µM, Suppl.Fig.6c
[12] = compound alone 10 µM, Suppl.Fig.6c
[13] = compound alone 30 µM, Suppl.Fig.6c
[14] = compound alone 100 µM, Suppl.Fig.6c

Row | SMILES | SRbeta (SRTOP2B), TOP2 ATPase activity (recombinant human TOP2B) | IC50 (recombinant human TOP2B) [nM] | IC50 (recombinant human TOP2A) [nM] | LDH release (inherent toxicity), mean of independent replicates [1, 3] | LDH release (inherent toxicity), mean of independent replicates [1, 4] | LDH release (inherent toxicity), mean of independent replicates [1, 5] | LDH release (inherent toxicity), mean of independent replicates [1, 6] | minimal effective concentration [2] [µM] | Suppl.Fig.3 DAU-induced cytotoxicity (LDH release) in NVCM, mean of independent replicates ([2]; compound 0.1 µM + DAU 1.2 µM) | Suppl.Fig.3 DAU-induced cytotoxicity (LDH release) in NVCM, mean of independent replicates ([2]; compound 1 µM + DAU 1.2 µM) | Suppl.Fig.3 DAU-induced cytotoxicity (LDH release) in NVCM, mean of independent replicates ([2]; compound 10 µM + DAU 1.2 µM) | Suppl.Fig.3 DAU-induced cytotoxicity (LDH release) in NVCM, mean of independent replicates ([2]; compound 30 µM + DAU 1.2 µM) | LTC = lowest toxic concentration [1] [µM] | further results
1 | CCCOc1ccc2c(CCC)cc(=O)oc2c1C(=O)N1CCCc2ccccc21 [4c] | 2.2 | 850 | 1870 | 16.7326 | 16.4897 | 23.8379 | 34.5318 | 0.1 | 37.3488 | 27.8991 | 34.5307 | 56.7644 |  | LDH release (inherent toxicity), mean of independent replicates ([1]; compound alone 0.01 µM, Suppl.Fig.4): 13.5244; LDH release (inherent toxicity), mean of independent replicates [1, 7]: 48.1102; Suppl.Fig.3 DAU-induced cytotoxicity (LDH release) in NVCM, mean of independent replicates ([2]; compound 0.01 µM + DAU 1.2 µM): 45.7304; Suppl.Fig.3 DAU-induced cytotoxicity (LDH release) in NVCM, mean of independent replicates ([2]; compound 100 µM + DAU 1.2 µM): 78.8192
2 | CCc1cc(=O)oc2c(C(=O)N3CCCc4ccccc43)c(O)ccc12 [2b] |  |  |  |  |  | 17.3516 | 18.0926 |  |  |  | 31.7392 | 34.9042 |  | LDH release (inherent toxicity), mean of independent replicates [1, 7]: 18.5764; Suppl.Fig.3 DAU-induced cytotoxicity (LDH release) in NVCM, mean of independent replicates ([2]; compound 100 µM + DAU 1.2 µM): 31.3386
3 | COc1ccc2c(C)cc(=O)oc2c1C(=O)N1CCCc2ccccc21 [3a] |  |  |  |  | 18.1168 | 15.937 |  |  |  | 38.7802 | 36.7927 |  | > 10 | LDH release (inherent toxicity), mean of independent replicates [1, 8]: 15.6047; Suppl.Fig.3 DAU-induced cytotoxicity (LDH release) in NVCM, mean of independent replicates ([2]; compound 3 µM + DAU 1.2 µM): 37.7536
4 | CCCc1cc(=O)oc2c(C(=O)N3CCCc4ccccc43)c(OCCCN3CCCCC3)ccc12 [compound 8] |  |  |  |  |  |  |  | 1 |  |  |  |  | 30 | LDH release (inherent toxicity), mean of independent replicates [1, 9]: 14.7015; LDH release (inherent toxicity), mean of independent replicates [1, 10]: 13.9677; LDH release (inherent toxicity), mean of independent replicates [1, 11]: 14.1413; LDH release (inherent toxicity), mean of independent replicates [1, 12]: 16.8035; LDH release (inherent toxicity), mean of independent replicates [1, 13]: 21.145; LDH release (inherent toxicity), mean of independent replicates [1, 14]: 29.4802; LDH release (protection against DAU), mean of independent replicates ([2]; compound 0.01 µM + DAU 1.2 µM): 40.886; LDH release (protection against DAU), mean of independent replicates ([2]; compound 0.1 µM + DAU 1.2 µM): 39.8568; LDH release (protection against DAU), mean of independent replicates ([2]; compound 1 µM + DAU 1.2 µM): 34.126; LDH release (protection against DAU), mean of independent replicates ([2]; compound 10 µM + DAU 1.2 µM): 30.5731; LDH release (protection against DAU), mean of independent replicates ([2]; compound 30 µM + DAU 1.2 µM): 32.7612; LDH release (protection against DAU), mean of independent replicates ([2]; compound 100 µM + DAU 1.2 µM): 39.9555
5 | CCc1cc(=O)oc2c(C(=O)N3CCCc4ccccc43)c(OCCO)ccc12 [5b] | 1.0 | 1460 | 1420 | 13.7703 | 14.0098 | 14.5134 | 14.3714 | 10 | 53.5677 | 49.2444 | 40.137 | 35.8495 | > 30 | 
6 | CCCc1cc(=O)oc2c(C(=O)N3CCCc4ccccc43)c(OC)ccc12 [3c] | 1.6 | 780 | 1270 | 16.0204 | 16.3627 | 16.4282 |  | 1 | 33.8238 | 29.3632 | 23.4291 |  | > 10 | LDH release (inherent toxicity), mean of independent replicates [1, 8]: 15.3033; Suppl.Fig.3 DAU-induced cytotoxicity (LDH release) in NVCM, mean of independent replicates ([2]; compound 3 µM + DAU 1.2 µM): 26.6827
7 | CCCc1cc(=O)oc2c(C(=O)N3CCCc4ccccc43)c(OCCN(C)C)ccc12 [compound 7] |  |  |  |  |  |  |  | 10 |  |  |  |  |  | LDH release (inherent toxicity), mean of independent replicates [1, 9]: 12.5189; LDH release (inherent toxicity), mean of independent replicates [1, 10]: 12.4578; LDH release (inherent toxicity), mean of independent replicates [1, 11]: 12.8607; LDH release (inherent toxicity), mean of independent replicates [1, 12]: 14.2154; LDH release (inherent toxicity), mean of independent replicates [1, 13]: 18.2491; LDH release (inherent toxicity), mean of independent replicates [1, 14]: 27.6932; LDH release (protection against DAU), mean of independent replicates ([2]; compound 0.01 µM + DAU 1.2 µM): 44.2016; LDH release (protection against DAU), mean of independent replicates ([2]; compound 0.1 µM + DAU 1.2 µM): 45.7696; LDH release (protection against DAU), mean of independent replicates ([2]; compound 1 µM + DAU 1.2 µM): 39.8955; LDH release (protection against DAU), mean of independent replicates ([2]; compound 10 µM + DAU 1.2 µM): 31.2866; LDH release (protection against DAU), mean of independent replicates ([2]; compound 30 µM + DAU 1.2 µM): 33.8072; LDH release (protection against DAU), mean of independent replicates ([2]; compound 100 µM + DAU 1.2 µM): 37.6314
